Measurements as given in US9079881B2, “Polymorph of 1-(2-methyl-4-(2,3,4,5-tetrahydro-1-benzazepin-1-ylcarbonyl)benzylcarbamoyl)-L-proline-N,N-dimethylamide” (Vantia Limited, priority 2010, dated 2015).
Entries after “also recorded” stand apart in the source; their conditions may differ. Read-outs that look alike come from different tables or passages of the source.

Key:
[1] = Stability testing: storage for 6 months at 40° C. and 75% relative humidity (Karl Fischer, HPLC, appearance); assay type: physicochemical; conditions: for sum of impurities (HPLC), initial / water / moisture content (Karl Fischer), initial: before storage
Description: Karl Fischer moisture content determination was carried out using Metrohm 795 KFT volumetric Karl Fischer apparatus. Sample size was approximately 100 mg and the determination was carried out in duplicate.
HPLC data were collected using a Zorbax Extend C18, 2.1 mm×150 mm, 5 μm d.p. column. Flow rate was 0.3 mL/min. Injection volume was 10 μL, detector wavelength 220 nm and column temperature 40° C. Eluent A was 10 mM aqueous ammonium acetate, pH 5.0. Eluent B was 20:80 v/v 10 mM aqueous ammonium acetate: acetonitrile. The gradient programme is shown below: […]
Also, there is no significant degradation as measured by the sum of impurities which increases only from 0.9% to 1.0% (HPLC).

[2] = Gravimetric Vapour Sorption Analysis (GVA), hygroscopicity testing; assay type: physicochemical
Description: Gravimetric Vapour Sorption Analysis (GVA) was carried out with approximately 20 mg of sample placed into a suitable sample holder such as a wire-mesh vapour sorption balance pan. This was loaded into either an IGAsorp (Hiden Analytical Instruments) or a DVS Intrinsic (Surface Measurement Systems) vapour sorption balance held at 25+/−0.1° C. The sample was then dried by maintaining a 0% humidity environment until no further weight change was recorded (alternatively, the sorption/desorption cycle is initiated at typical ambient conditions of 40% relative humidity). Subsequently, the sample was then subjected to a ramping profile up to 90% relative humidity at 10% relative humidity increments, maintaining the sample at each step until equilibration had been attained (99.5% step completion). Upon reaching equilibration, the relative humidity within the apparatus was ramped to the next step and the equilibration procedure repeated. After completion of the sorption cycle, the sample was then dried using the same procedure. The weight change during the sorption/desorption cycles was then monitored, allowing for the hygroscopic nature of the sample to be determined.
The amorphous form is hygroscopic as indicated by Gravimetric Vapour Sorption Analysis (GVA).
In contrast, there was no significant water uptake observed between 40% RH and 90% RH (approximately 0.3% w/w) by the crystalline solid form (the water sorption/desorption isotherms are shown in FIGS. 9 and 10).

vasopressin V2 receptor = target: T1, vasopressin V2 receptor (Rattus norvegicus, UniProt Q00788); assay: in vivo assay described in PCT/GB2001/000023 (inhibition of urine output); conditions: at 1 hour, dosed at 1 mg/Kg
T1 construct: from tissue; host or cells: whole animal (in vivo)
Source text: The ability of the crystalline form of the invention to agonise the vasopressin V2 receptor may be determined using the in vivo assay described in PCT/GB2001/000023.

[3] = 6 months at 40° C. and 75% relative humidity

T1 sequence (Q00788 whole entry): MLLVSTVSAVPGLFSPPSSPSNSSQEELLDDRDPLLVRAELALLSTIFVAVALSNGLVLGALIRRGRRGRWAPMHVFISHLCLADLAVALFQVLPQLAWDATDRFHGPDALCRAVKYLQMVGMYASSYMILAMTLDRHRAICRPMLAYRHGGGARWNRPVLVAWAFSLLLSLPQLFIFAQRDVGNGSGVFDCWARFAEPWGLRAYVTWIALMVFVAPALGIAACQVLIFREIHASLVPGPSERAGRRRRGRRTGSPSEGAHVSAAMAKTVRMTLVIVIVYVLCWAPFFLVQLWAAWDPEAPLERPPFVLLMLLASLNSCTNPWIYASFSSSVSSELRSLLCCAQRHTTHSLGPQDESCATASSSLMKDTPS

Structure (SMILES): Cc1cc(C(=O)N2CCCCc3ccccc32)ccc1CNC(=O)N1CCC[C@H]1C(=O)N(C)C [amorphous form, 1-(2-methyl-4-(2,3,4,5-tetrahydro-1-benzazepin-1-ylcarbonyl)benzylcarbamoyl)-L-proline-N,N-dimethylamide]
- appearance after storage [1, 3]: became glassy in appearance and became yellow in colour; also recorded: became glassy in appearance and yellow in colour
- sum of impurities (HPLC) after storage [1, 3]: 3.7%
- water / moisture content (Karl Fischer) after storage [1, 3]: 5.7%
- sum of impurities (HPLC), initial [1]: 1.5%
- water / moisture content (Karl Fischer), initial [1]: 1.3%
- hygroscopicity (in words) [2]: highly hygroscopic
- change in solid form over the entire water sorption range [2]: remained stable to recrystallisation
- hygroscopicity (in words) ([2]; listed as amorphous solid): hygroscopic

Structure (SMILES): Cc1cc(C(=O)N2CCCCc3ccccc32)ccc1CNC(=O)N1CCC[C@H]1C(=O)N(C)C [crystalline form, 1-(2-methyl-4-(2,3,4,5-tetrahydro-1-benzazepin-1-ylcarbonyl)benzylcarbamoyl)-L-proline-N,N-dimethylamide]
- appearance after storage [1, 3]: remains as a white powder
- stability (in words) [1, 3]: more stable than the amorphous form
- sum of impurities (HPLC) after storage [1, 3]: 1.0%
- water / moisture content (Karl Fischer) after storage [1, 3]: 3.8%
- sum of impurities (HPLC), initial [1]: 0.9%
- water / moisture content (Karl Fischer), initial ([1]; listed as Form 1): 3.8%
- hygroscopicity (in words) [2]: much less hygroscopic than the amorphous form
- water uptake between 40% RH and 90% RH ([2]; 25 °C, 40% RH to 90% RH): approximately 0.3 % w/w
- change in solid form over the entire water sorption range [2]: Neither is there any change in solid form
- change in solid form over the entire water sorption range ([2]; listed as crystalline solid form): no change in solid state form

Structure (SMILES): Cc1cc(C(=O)N2CCCCc3ccccc32)ccc1CNC(=O)N1CCC[C@H]1C(=O)N(C)C [1-(2-methyl-4-(2,3,4,5-tetrahydro-1-benzazepin-1-ylcarbonyl)benzylcarbamoyl)-L-proline-N,N-dimethylamide]
- inhibition of urine output (vasopressin V2 receptor): 82%
